Values of other authors in US11452768B2, “Combination therapy with neoantigen vaccine” (The Broad Institute Inc., priority 2013, dated 2022).

Columns and labels:
[1] = test system: advanced hormone refractory prostate cancer; settings: personalized vaccination combined with a low dose of estramustine
[2] = test system: gene expression in whole blood; settings: one single s.c. administration, 8 volunteers vs 4 placebo
ovarian carcinoma = settings: in combination with NY-ESO-1 peptide vaccine and Montanide
advanced melanoma = settings: nivolumab and ipilimumab combined, intravenous

C[C@]12CC[C@@H]3c4ccc(OC(=O)N(CCCl)CCCl)cc4CC[C@H]3[C@@H]1CC[C@@H]2O [estramustine]
Patients with a ≥50% decrease in serum prostate specific antigen (PSA) [1]: 54%

Polyinosinic-Polycytidylic Acid-poly-L-lysine Carboxymethylcellulose [poly-ICLC]
Differentially expressed genes versus placebo [2]: up to 212 genes | Patients showing induction of CD4+ and CD8+ T cell and antibody responses to the peptide (ovarian carcinoma): > 90% | Fever (common adverse event, primary dose-limiting factor) (high doses ≥6 mg/m2): above 40 °C | Tolerability across all studies and spectrum of diseases (low dose (1-2 mg total dose)): well-tolerated

ipilimumab: monoclonal antibody that binds and blocks CTLA-4
Maximum doses associated with an acceptable level of adverse events (advanced melanoma): 3 mg per kilogram

nivolumab: fully human IgG4 blocking monoclonal antibody against PD-1
Objective responses (tumor types; across tumor types): 16-31% | Durability of most responses (tumor types; in vivo): > 1 year | Safety (tumor types; in vivo): safe | Maximum doses associated with an acceptable level of adverse events (advanced melanoma): 1 mg per kilogram
